The record followed here is US9624235B2, “Compounds and methods for inhibition of AP endonuclease-1/redox factor-1 (HAPE1) activity” (University of Pittsburgh—Of the Commonwealth System of …, priority 2012, dated 2017).

SMILES strings stand for the structures. Like-named read-outs stand apart in the source and are kept apart here.

The target of assay [1] is T1, APE-1 (Homo sapiens (Human), UniProt P27695). Description: Gel-based excision assay for APE-1 inhibitors. The class given is biochemical. The conditions noted are these: APE-1 cleaved fragment vs. full length DNA substrate. The method, then:
Screening for APE-1 Inhibitors. […] In this assay, the DNA hairpin substrate has a 6-FAM fluorophore on the 5′-terminus, a DABACYL fluorescence quencher on the 3′-terminus and a THF abasic site located 6 base pairs from the 5′-terminus in the stem region (FIG. 6). APE-1 activity is monitored as an increase in fluorescence due to the release of the 5′-(6-FAM)-GCACT fragment as a function of time. […] In this assay, substrate turnover was calculated from relative intensities of cleaved vs. intact oligomers and correlated with inhibitor concentration.

The target in assay [2] is T1, APE-1. Put plainly: Fluorescence binding of 4 to APE-1 protein. The conditions noted are these: 1 μM APE-1, fluorescence increase. The method, then:
Fluorescence and UV Spectrometry Binding Studies. The fluorescence spectra were measured at room temperature on a Cary Eclipse fluorescence spectrometer (Varian, Palo Alto, Calif.). The fluorescence properties of 1 and 4 were measured in 10 mM HEPES, 0.5 mM MgCl2, 100 mM KCl, 100 mM NaCl, 2% glycerol, in absence or presence of wild type (unmodified) hairpin DNA (5′-[…]-3′) or THF-modified hairpin DNA (5′-CGAXTTCGCAGGACCGAATTCG-3′) or APE-1 protein. A solution of 0.5 μM of either DNA sequence was titrated against 1-10 μM ethidium bromide (EtBr) to determine saturation of EtBr by fluorescence (530 nm excitation with 610 nm emission) and the subsequent displacement of EtBr (4 μM) by 1-20 μM 1 or 4 was also assayed. The APE protein-inhibitor binding fluorescence was assayed by titrating 0.1-20 μM of 4 against 1 μM of APE-1 protein.
Interaction of Inhibitors with APE-1 Protein. To establish whether there is a direct interaction between an inhibitor and APE-1, the fluorescence spectra of 4 was determined in the absence and presence of increasing amounts of the protein.

In assay [3] the test system is T98G cells. Description: Short term (72 h) MTS cytotoxicity assay. In kind it is cell-based, human. The method, then:
Cytotoxic Effects of APE-1 Inhibitors on Cultured Human Glioblastoma (T98G) Cells. Human glioblastoma cells (T98G) were maintained in growth medium as described above. […] The cells were allowed to attach and grow for 24 h, and then treated with serial dilutions of the drug for 72 h. After treatment, viable cells were measured by an MTS assay using the CellTiter 96 AQueous kit (Promega) as per manufacturer's instructions. […] The cells were allowed to attach and grow for 24 h and treated with serial dilutions of the drug for 240 h. After treatment, viable cells were measured using the CyQUANT cell proliferation assay kit (Invitrogen) as per manufacturer's instructions.
(§1) Toxicity. It was assumed that inhibition of APE-1 activity would be lead to toxicity since genetic deletion of the protein is lethal to cells. […] The toxicities were also determined in combination with the DNA minor groove methylating agent, MeLex. MeLex efficiently and selectively generates N3-methyladenine, which is converted into an abasic site by a BER glycosylase and/or hydrolytic depurination. The T98G cell line is relatively resistant to DNA damaging anticancer agents due to expression of multiple drug resistance proteins and O^6-alkylguanine-DNA alkyltransferase. […] A goal of the development of APE-1 inhibitors is to determine if they can be used to enhance the activity of DNA alkylating agents.
For orientation: Tetrazolium assays rely on reduction of a dye to a coloured formazan, in cell work by metabolically active cells.

The test system of assay [4] is T98G cells. Put plainly: Potentiation of MeLex cytotoxicity, short term (72 h) MTS assay. The class given is cell-based, human. The method, then: (§2) Cytotoxic Potentiation of Various DNA Damaging Agents. T98G cells maintained in growth medium were resuspended in fresh growth medium and seeded into 96-well plates at 2000 cells/well (short term cytotoxicity) or 100 cells/well (long term cytotoxicity) as described in the previous section. After 24 h, the cells were treated with serial dilutions of various DNA damaging drugs in absence or presence of APE-1 inhibitors. At the end of the treatment period, cell survival was assayed using CellTiter 96 AQueous or CyQUANT kits for the short- and long-term studies respectively.
as §1

Assay [5] has as its system T98G cells. Description: Potentiation of MeLex cytotoxicity, long term (10 d) CyQUANT assay. In kind it is cell-based, human. The method, then: as §2, §1
Assay [6] deals with aldehyde reactive sites in genomic DNA from T98G cells. In kind it is cell-based, human.
Experimental: Quantification of Abasic Sites. T98G cells maintained in growth medium, were harvested by Trypsin-EDTA treatment, resuspended in fresh growth medium at a density of 2.5×10^5 cells mL^−1, and 2 mL (5×10^5 cells) of this suspension was seeded into the wells of a sterile 6-well tissue culture plate. Cells were allowed to grow for 24 h, treated with the various compounds for different time points and/or at different concentrations. At the end of each treatment, adherent cells were harvested by trypsin-EDTA treatment and pooled with live and dead cells in culture supernatant. Pooled cells in suspension were pelleted by centrifugation, washed with 1×PBS and genomic DNA was isolated using the DNAzol reagent (Invitrogen). DNA in solution was quantified by UV absorbance (λ260 nm) using a Synergy H1 multiwell plate reader (BioTek, Winooski, Vt.). Abasic sites in purified DNA were then reacted with the biotin-conjugated aldehyde reactive probe (ARP), immobilized onto 96-well ELISA plates, and detected using horseradish peroxidase (HRP)-conjugated streptavidin using a colorimetric substrate as per manufacturer's instructions (Dojindo Molecular Technologies, Rockville, Md.).
The biotin tagged ARS are quantified using an avidin-biotin assay, followed by colorimetric detection with horseradish peroxidase conjugated to avidin.
Assay [7] concerns NCI panel of 60-cell lines. Description: NCI 60 cell line growth inhibition. In kind it is cell-based. To be noted: NCI 60 cell lines; read-out: average growth inhibition (GI50) in all the lines.
Assay [8] concerns leukemia cell lines. Put plainly: NCI 60 cell line growth inhibition. The class given is cell-based.
Assay [9] relates to SK-MEL-5 melanoma cells. Put plainly: Combination of APE1 inhibitor 4 with approved anticancer drugs, NCI60 cell line assay. The class given is cell-based. To be noted: preliminary screen. From the text: FIG. 5. An example of the enhanced activity of vemurafenib in combination with APE1 inhibitor 4 in SK-MEL-5 melanoma cells. Matric controls are run in singlet on each matrix and compared to replicate (n=10) controls for vemurafenib and 4.
APE1 Inhibitor 4 Enhances the Toxicity of Anticancer Drugs in the NCl60 Cell Line Assay—In a preliminary screen using 10 randomly selected cell lines, the effect of APE1 inhibitor 4 on the growth of 20 recently approved non-genotoxic anticancer drugs was assayed.

T1 sequence (P27695 whole entry, the tested form may be a part): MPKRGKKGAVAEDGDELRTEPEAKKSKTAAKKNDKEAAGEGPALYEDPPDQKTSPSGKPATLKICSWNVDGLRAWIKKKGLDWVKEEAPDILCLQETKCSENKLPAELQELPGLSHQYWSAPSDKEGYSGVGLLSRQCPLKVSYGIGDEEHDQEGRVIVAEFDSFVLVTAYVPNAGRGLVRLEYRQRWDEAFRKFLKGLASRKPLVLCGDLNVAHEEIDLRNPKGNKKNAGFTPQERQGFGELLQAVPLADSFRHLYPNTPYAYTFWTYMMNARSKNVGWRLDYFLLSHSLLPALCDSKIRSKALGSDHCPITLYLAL

For orientation: IC50 means the concentration at which inhibition is half-maximal. Low readings indicate greater potency in that assay, high ones weaker potency in that assay. Usually Kd stands for the constant that tells how readily two partners part at equilibrium. Low values mean a tighter complex, high ones a looser complex. As a reminder, the GI50 is the concentration giving 50% growth inhibition. Take `CCn1c2ccccc2c2cc(/C=N/Nc3cc(C)nc4cc5c(cc34)OCO5)ccc21` [Compound 4]: the midpoint of inhibition in assay [1], the IC50, lay at 4.1 µM. For the same compound, the affinity in [2], expressed as Kd, was 6.15 µM. In assay [3] (72 h MTS assay), the LD10 concentration turned out to be 0.25 µM. Besides, the LD50 in [3] (MTS assay, T98G) is recorded as 960 nM. Further, the “LD50 of MeLex in the presence of LD10 concentration of inhibitor” value in [4] (72 h MTS assay) was found to be 49 µM; in [5] it was 1.6 µM. For the same compound, the “maximum potentiation of MeLex” value in assay [4] (short term assay) and in assay [5] was “approximately 5 fold” each time. For the same compound, the “level of ARS” value in assay [6] (0.25 μM compound, maintained from 6 h until 18 h) is reported as “approximately 17 ARS/10^5 nucleotides”. Besides, the “level of ARS in combination with MeLex” value in assay [6] (80 μM MeLex + 0.25 μM inhibitor, through at least 12 h) is given as 63 sites/10^5 nucleotides. Also, the GI50 was found to be 4.4 ± 2.6 µM in assay [7]; 1.8 ± 2.9 µM in assay [8] (60 cell, 6 leukemia cell lines, read-out: GI50 overall average leukemia cell lines); 0.64 ± 0.4 µM in assay [8] (Homo sapiens, HL-60 omitted, read-out: GI50 leukemia cell lines, HL-60 line omitted). Besides, the “effect in combination with Vemurafenib” value in assay [9] was “>additive”.
